Data taken from US20230202992A1, “PHARMACEUTICAL COMPOSITION FOR PREVENTING OR TREATING SMALL-CELL LUNG CANCER ASSOCIATED WITH RON MUTANTS AND METHOD USING SAME” (WELLMARKER BIO CO., LTD., priority 2020, published 2023).

Tests used:
[1] = test system: H417 cell line (small cell lung cancer cell line of a mutation RONΔ155 type); experiment: Cell killing efficacy in small cell lung cancer cell line (PI staining, FACS); format: cell-based; conditions: H417 cells (mRONΔ155), 1 μM, 72 hours, propidium iodide, FIG. 1
Experimental: The H417 cell line, which is a small cell lung cancer cell line of a mutation RONΔ155 type, was counted, and 2×10^5 cells were seeded in a 60 mm dish, respectively, and 24 hours later, treated with 1 μM of each of the compounds synthesized in Example 1 (WM-S1-030), Example 2, Example 3, Example 4, and Example 5 for 72 hours. As a positive control, a known RON inhibitor, BMS-777607 compound (1 μM), was used. BMS-777607 is N-{4-[(2-amino-3-chloro-4-pyridinyl)oxy]-3-fluorophenyl}-4-ethoxy-1-(4-fluorophenyl)-2-oxo-1,2-dihydro-3-pyridinecarboxamide, which is compound 1 disclosed in U.S. Pat. No. 8,536,200 B2. BMS-777607 is a well known RON inhibitor.
After 72 hours, all of the medium was transferred to a 15 mL conical tube and washed once with 1×PBS (phosphate buffered saline), and then the cells were harvested. Thereafter, the supernatant was removed by centrifugation at 1,000 rpm for 3 minutes, and propidium iodide (PI) was diluted in a FACS (Fluorescence-Activated Cell Sorting) buffer (PBS+2% FBS) at a ratio of 1:1000. The prepared buffer was added adequately depending on the number of cells, and then it was transferred to a FACS tube and reacted for 10 minutes. Thereafter, it was measured using a cytometer (FACS Analyzer).

[2] = test system: cleaved caspase-3; experiment: Protein expression change in tumor tissue of H417 transplanted animal model, immunochemical staining; format: in vivo; conditions: H417 transplanted mouse model, 3 mpk, 10 mpk, 30 mpk, FIG. 3
Experimental: (§1) WM-S1-030 synthesized in Example 1 above was administered at each concentration (3 mpk, 10 mpk, 30 mpk) to a mouse model transplanted with the H417 cell line, which is a small cell lung cancer cell line of a mutation RONΔ155 type, and then the tumor was extracted, and the expression changes of the proteins were analyzed by immunochemical staining.
(§2) Specifically, paraffin slides were prepared using tissues isolated from the sacrificed mice. The tissue sections were deparaffinized and rehydrated, immersed in the target recovery buffer 1×(ScyTek Laboratories, Cat #CBB999) and heated for 15 minutes to perform an antigen recovery process. After the reaction, the tissue sections were washed in Tris buffered saline-0.05% Tween 20 (TBS-T)(T&I, BTT-9310) for 5 minutes, and then the reaction was performed with a non-specific antibody reaction blocking reagent (vector, SP-5035) for 1 hour.
(§3) The tissue sections were cultured at 4° C. overnight with mRON (Abcam, ab52927, 1:50), pTyr-mRON (Mybioscience, MBS462024, 1:100), cleaved caspase-3 (Asp175XR&D Systems, MAB835, 1:50) and then washed with TBS-T for 5 minutes, and then endogenous peroxidase activity was blocked using a peroxidase blocking reagent (Cellmarque, 925B-05). Thereafter, the tissue sections were washed with TBS-T for 5 minutes and then incubated with a rabbit secondary antibody (vector, PK-6101) at room temperature for 1 hour. […]

[3] = test system: pTyr-mRON; experiment: as above; format: in vivo; conditions: H417 transplanted mouse model, 3 mpk, 10 mpk, 30 mpk, FIG. 3
Experimental: as §1, §2, §3

[4] = test system: H417 cell line (mRONΔ155) transplanted tumor; experiment: Tumor growth inhibition in H417 cell line transplanted animal model; format: in vivo, mouse; conditions: BALB/c-nude mice transplanted with H417, 30 mpk, oral, once a day for 3 weeks; FIG. 2
Experimental: It was confirmed whether tumor growth was inhibited by administering WM-S1-030 synthesized in Example 1 above at a dose of 30 mpk to a mouse model transplanted with the H417 cell line, which is a small cell lung cancer cell line of a mutation RONΔ155 type. Specifically, 5-week-old female BALB/c-nude mice were purchased and acclimatized for 1 week. Thereafter, H417 (5×10^6 cells/mouse), a small cell lung cancer cell line of a mutation RONΔ155 type, was diluted in PBS (phosphate buffered saline), and 100 μL was injected subcutaneously into the right dorsal side of the mouse. When the size of the tumor reached about 100 mm^3, WM-S1-030 was orally administered. At this time, the group orally administered with the vehicle was used as a negative control. The drug was administered once a day for 3 weeks, and the tumor size and body weight were measured twice a week. After the drug administration was completed, the mice were euthanized, the tumor was extracted, and the weight was measured.

SMILES	cell death (cell killing efficacy) [1]	expression of cleaved caspase-3 [2]	expression of pTyr-mRON [3]	tumor growth [4]
CCOc1ccn(-c2ccc(F)cc2)c(=O)c1C(=O)Nc1ccc(Oc2ccnc(N)c2Cl)c(F)c1 [BMS-777607, N-{4-[(2-amino-3-chloro-4-pyridinyl)oxy]-3-fluorophenyl}-4-ethoxy-1-(4-fluorophenyl)-2-oxo-1,2-dihydro-3-pyridinecarboxamide]	low	–	–	–
CCOc1ccn(-c2ccc(F)cc2)c(=O)c1C(=O)Nc1ccc(Oc2ccnc3cc(-c4ccc(CN5CCOCC5)cn4)sc23)c(F)c1.Cl [Example 1, 4-ethoxy-N-[3-fluoro-4-({2-[5-(morpholinomethyl)pyridin-2-yl]thieno[3,2-b]pyridin-7-yl}oxy)phenyl]-1-(4-fluorophenyl)-2-oxo-1,2-dihydropyridine-3-carboxamide hydrochloride]	–	induced	decreased	significantly inhibited
